Measured values reported in article PMC6364417, “Kinase inhibitor library screening identifies synergistic drug combinations effective in sensitive and resistant melanoma cells” (Journal of Experimental & Clinical Cancer Research : CR, 2019).

Assays:
A375 cells (parental) [1] = assay: Dose-response curves and IC50, PrestoBlue cell viability, 72 h; format: cell-based, human; settings: Homo sapiens, A-375, n.e. = did not suppress growth below 50% in the tested concentration range, read-out: Half-maximal inhibitory concentration value (IC50), Mean
[2] = test system: A375-GP cells (Dabrafenib-resistant); assay: as above; format: cell-based, human; settings: Homo sapiens, n.e. = did not suppress growth below 50% in the tested concentration range, read-out: Half-maximal inhibitory concentration value (IC50), Mean
[3] = test system: A375-XP cells (Vemurafenib-resistant); assay: as above; format: cell-based, human; settings: Homo sapiens, n.e. = did not suppress growth below 50% in the tested concentration range, read-out: Half-maximal inhibitory concentration value (IC50), Mean
A375 cells (parental) [4] = assay: Kinase inhibitor library screening, PrestoBlue cell viability, 1 or 10 μM, 72 h; settings: for cell viability (kinase inhibitor library screening): A375 Parental, 72 h
[5] = test system: IGR37-GP cells (Dabrafenib-resistant); assay: as above; settings: for cell viability (kinase inhibitor library screening): IGR37 GP, 72 h
[6] = test system: A375-GP cells (Dabrafenib-resistant); assay: as above; settings: for cell viability (kinase inhibitor library screening): A375 GP, 72 h
IGR37 cells (parental) = assay: as above; settings: for cell viability (kinase inhibitor library screening): IGR37 Parental, 72 h
[7] = test system: IGR37-XP cells (Vemurafenib-resistant); assay: as above; settings: for cell viability (kinase inhibitor library screening): IGR37 XP, 72 h
[8] = test system: A375-XP cells (Vemurafenib-resistant); assay: as above; settings: for cell viability (kinase inhibitor library screening): A375 XP, 72 h
[9] = test system: 501Mel-GP cells (Dabrafenib-resistant); assay: as above; settings: 72 h; for cell viability (kinase inhibitor library screening): 501Mel GP
501Mel cells (parental) = assay: as above; settings: 72 h; for cell viability (kinase inhibitor library screening): 501Mel Parental
How it was run: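 Readout: PrestoBlue signal on a monochromator plate reader, given as percent viability relative to untreated controls. Parental and drug-resistant (Vemurafenib XP, Dabrafenib GP) sublines were tested; at least duplicates per line.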

[10] = test system: 501Mel-XP cells (Vemurafenib-resistant); assay: as above; settings: 72 h; for cell viability (kinase inhibitor library screening): 501Mel XP

With C[C@]1(O)C[C@@H](c2nc(-c3ccc4ccc(-c5ccccc5)nc4c3)c3c(N)nccn32)C1 [Linsitinib] the IC50 (A375 cells (parental) [1]) was 4.17 µM, the IC50 [2] was 2.08 µM and the IC50 [3] was 2.94 µM.
CC(=O)c1c(C)c2cnc(Nc3ccc(N4CCNCC4)cn3)nc2n(C2CCCC2)c1=O [Palbociclib] gave an IC50 (A375 cells (parental) [1]) of 5.32 µM, an IC50 [2] of 2.21 µM and an IC50 [3] of 4.99 µM.
With O=c1cc(-c2cccc3c2Sc2ccccc2S3)oc(N2CCOCC2)c1 [KU-55933] the “cell viability (kinase inhibitor library screening)” value (A375 cells (parental) [4]; 10μΜ) was 90.0%, the “cell viability (kinase inhibitor library screening)” value (A375 cells (parental) [4]; 1μΜ) was 105.8% and the “cell viability (kinase inhibitor library screening)” value ([5]; 1μΜ) was 98.2%. The “cell viability (kinase inhibitor library screening)” value ([5]; 10μΜ) was 67.8%, the “cell viability (kinase inhibitor library screening)” value ([6]; 1μΜ) was 92.9% and the “cell viability (kinase inhibitor library screening)” value ([6]; 10μΜ) was 89.1%. The “cell viability (kinase inhibitor library screening)” value (IGR37 cells (parental); 1μΜ) was 113.8%, the “cell viability (kinase inhibitor library screening)” value (IGR37 cells (parental); 10μΜ) was 80.4% and the “cell viability (kinase inhibitor library screening)” value ([7]; 1μΜ) was 105.2%. For the same molecule, the “cell viability (kinase inhibitor library screening)” value ([7]; 10μΜ) was 34.9%, the “cell viability (kinase inhibitor library screening)” value ([8]; 1μΜ) was 104.1% and the “cell viability (kinase inhibitor library screening)” value ([8]; 10μΜ) was 92.4%. The “cell viability (kinase inhibitor library screening)” value ([9]; 1μΜ) was 98.9%, the “cell viability (kinase inhibitor library screening)” value ([9]; 10μΜ) was 76.6% and the “cell viability (kinase inhibitor library screening)” value (501Mel cells (parental); 10μΜ) was 90.2%. The “cell viability (kinase inhibitor library screening)” value ([10]; 1μΜ) was 87.7% and the “cell viability (kinase inhibitor library screening)” value ([10]; 10μΜ) was 65.9%.
O=C(Nc1ccc(OC(F)(F)F)cc1)c1sccc1NCc1ccnc2ccccc12 [OSI-930] was tested, and the “cell viability (kinase inhibitor library screening)” value (A375 cells (parental) [4]; 10μΜ) was 77.6%, the “cell viability (kinase inhibitor library screening)” value (A375 cells (parental) [4]; 1μΜ) was 97.9% and the “cell viability (kinase inhibitor library screening)” value ([5]; 1μΜ) was 88.5%. For the same molecule, the “cell viability (kinase inhibitor library screening)” value ([5]; 10μΜ) was 90.3%, the “cell viability (kinase inhibitor library screening)” value ([6]; 1μΜ) was 86.8% and the “cell viability (kinase inhibitor library screening)” value ([6]; 10μΜ) was 55.3%. For the same molecule, the “cell viability (kinase inhibitor library screening)” value (IGR37 cells (parental); 1μΜ) was 96.0%, the “cell viability (kinase inhibitor library screening)” value (IGR37 cells (parental); 10μΜ) was 89.7% and the “cell viability (kinase inhibitor library screening)” value ([7]; 1μΜ) was 100.2%. The “cell viability (kinase inhibitor library screening)” value ([7]; 10μΜ) was 70.0%, the “cell viability (kinase inhibitor library screening)” value ([8]; 1μΜ) was 93.4% and the “cell viability (kinase inhibitor library screening)” value ([8]; 10μΜ) was 71.6%. The “cell viability (kinase inhibitor library screening)” value ([9]; 1μΜ) was 96.5%, the “cell viability (kinase inhibitor library screening)” value ([9]; 10μΜ) was 73.5% and the “cell viability (kinase inhibitor library screening)” value (501Mel cells (parental); 1μΜ) was 100.2%. The “cell viability (kinase inhibitor library screening)” value (501Mel cells (parental); 10μΜ) was 85.8%, the “cell viability (kinase inhibitor library screening)” value ([10]; 1μΜ) was 92.9% and the “cell viability (kinase inhibitor library screening)” value ([10]; 10μΜ) was 73.6%.
Cn1c(=O)c(F)c(Nc2ccc(I)cc2F)c2c(=O)n(C[C@@H](O)CO)cnc21 [TAK-733] was tested, and the viability at 1 µM (A375 cells (parental) [4]; Homo sapiens, A-375, 72 h, read-out: cell viability, A375 Parental, 1μΜ) was 18.6%, the viability at 10 µM (A375 cells (parental) [4]; Homo sapiens, A-375, 72 h, read-out: cell viability, A375 Parental, 10μΜ) was 18.6% and the viability at 1 µM ([5]; Homo sapiens, IGR-37, 72 h, read-out: cell viability, IGR37 GP, 1μΜ) was 65.6%. The viability at 10 µM ([5]; Homo sapiens, IGR-37, 72 h, read-out: cell viability, IGR37 GP, 10μΜ) was 58.6%, the viability at 1 µM ([6]; Homo sapiens, A-375, 72 h, read-out: cell viability, A375 GP, 1μΜ) was 17.6% and the viability at 10 µM ([6]; Homo sapiens, A-375, 72 h, read-out: cell viability, A375 GP, 10μΜ) was 16.5%. It also gave a viability at 1 µM (IGR37 cells (parental); Homo sapiens, IGR-37, 72 h, read-out: cell viability, IGR37 Parental, 1μΜ) of 36.5%, a viability at 10 µM (IGR37 cells (parental); Homo sapiens, IGR-37, 72 h, read-out: cell viability, IGR37 Parental, 10μΜ) of 44% and a viability at 1 µM ([7]; Homo sapiens, IGR-37, 72 h, read-out: cell viability, IGR37 XP, 1μΜ) of 52.9%. It also gave a viability at 10 µM ([7]; Homo sapiens, IGR-37, 72 h, read-out: cell viability, IGR37 XP, 10μΜ) of 22%, a viability at 1 µM ([8]; Homo sapiens, A-375, 72 h, read-out: cell viability, A375 XP, 1μΜ) of 10.7% and a viability at 10 µM ([8]; Homo sapiens, A-375, 72 h, read-out: cell viability, A375 XP, 10μΜ) of 2.7%. It also gave a viability at 1 µM ([9]; Homo sapiens, read-out: cell viability, 501Mel GP, 1μΜ) of 90.9%, a viability at 10 µM ([9]; Homo sapiens, read-out: cell viability, 501Mel GP, 10μΜ) of 72.7% and a viability at 1 µM (501Mel cells (parental); Homo sapiens, read-out: cell viability, 501Mel Parental, 1μΜ) of 54%. For the same molecule, the viability at 10 µM (501Mel cells (parental); Homo sapiens, read-out: cell viability, 501Mel Parental, 10μΜ) was 57.9%, the viability at 1 µM ([10]; Homo sapiens, read-out: cell viability, 501Mel XP, 1μΜ) was 80.5% and the viability at 10 µM ([10]; Homo sapiens, read-out: cell viability, 501Mel XP, 10μΜ) was 58.7%.
In the case of CN1CCN(C2CCN(C(=O)Nc3cc(Oc4ccc(NC(=O)C5(C(=O)Nc6ccc(F)cc6)CC5)c(F)c4)ccn3)CC2)CC1 [Golvatinib (E7050)], the “cell viability (kinase inhibitor library screening)” value (A375 cells (parental) [4]; 10μΜ) is reported as 70.5%, the “cell viability (kinase inhibitor library screening)” value (A375 cells (parental) [4]; 1μΜ) is reported as 93.1% and the “cell viability (kinase inhibitor library screening)” value ([5]; 1μΜ) is reported as 92.1%. The “cell viability (kinase inhibitor library screening)” value ([5]; 10μΜ) was 49.6%, the “cell viability (kinase inhibitor library screening)” value ([6]; 1μΜ) was 103.0% and the “cell viability (kinase inhibitor library screening)” value ([6]; 10μΜ) was 53.0%. For the same molecule, the “cell viability (kinase inhibitor library screening)” value (IGR37 cells (parental); 1μΜ) was 99.0%, the “cell viability (kinase inhibitor library screening)” value (IGR37 cells (parental); 10μΜ) was 18.3% and the “cell viability (kinase inhibitor library screening)” value ([7]; 1μΜ) was 95.2%. The “cell viability (kinase inhibitor library screening)” value ([7]; 10μΜ) was 10.4%, the “cell viability (kinase inhibitor library screening)” value ([8]; 1μΜ) was 99.6% and the “cell viability (kinase inhibitor library screening)” value ([8]; 10μΜ) was 65.0%. The “cell viability (kinase inhibitor library screening)” value ([9]; 1μΜ) was 81.2%, the “cell viability (kinase inhibitor library screening)” value ([9]; 10μΜ) was -0.26% and the “cell viability (kinase inhibitor library screening)” value (501Mel cells (parental); 1μΜ) was 96.5%. For the same molecule, the “cell viability (kinase inhibitor library screening)” value (501Mel cells (parental); 10μΜ) was 0.148%, the “cell viability (kinase inhibitor library screening)” value ([10]; 1μΜ) was 66.2% and the “cell viability (kinase inhibitor library screening)” value ([10]; 10μΜ) was -0.363%.
